The source of these data is article PMC3148848 (Journal of medicinal chemistry, 2009).

This assay deals with SARS-CoV PLpro (Severe acute respiratory syndrome coronavirus, UniProt P0C6X7). The format is biochemical.

Molecules are shown by their SMILES.

For `Cc1ccccc1C(=O)N[C@H](C)c1ccc2ccccc2c1` [lead], the “mode of inhibition (kinetic studies)” value is recorded as “reversible inhibitor”.
